Results as given in ChEMBL document CHEMBL1158440, “Linear disulfide-containing low polymer as efficient DNA cleavage reagent” (Bioorg Med Chem Lett, 2009).
Active and inactive are the calls of the source. No cut-off for these calls is given here.

How the values were obtained:
Type in all cases: nucleic-acid assay
[1] = test system: Nucleic Acid; experiment: Induction of supercoiled Escherichia coli pUC19 cleavage assessed as formation of nicked DNA at 56 mg/L in phosphate buffered saline at pH 7.4 after 24 hrs by agarose gel electrophoresis in presence of DMSO
[2] = test system: Nucleic Acid; experiment: Induction of supercoiled Escherichia coli pUC19 cleavage assessed as formation of nicked DNA at 56 mg/L in phosphate buffered saline at pH 7.4 after 24 hrs by agarose gel electrophoresis in presence of tert-butyl alcohol
[3] = test system: Nucleic Acid; experiment: Induction of supercoiled Escherichia coli pUC19 cleavage assessed as formation of nicked DNA at 56 mg/L in phosphate buffered saline at pH 7.4 after 24 hrs by agarose gel electrophoresis in presence of potassium iodide
[4] = test system: Nucleic Acid; experiment: Induction of supercoiled Escherichia coli pUC19 cleavage assessed as formation of nicked DNA at 56 mg/L in phosphate buffered saline at pH 7.4 after 24 hrs by agarose gel electrophoresis in presence of NaN3
[5] = test system: Nucleic Acid; experiment: Induction of supercoiled Escherichia coli pUC19 cleavage assessed as formation of nicked DNA at 7 mg/L in phosphate buffered saline at pH 7.4 after 24 hrs by agarose gel electrophoresis relative to control
[6] = test system: Nucleic Acid; experiment: Induction of supercoiled Escherichia coli pUC19 cleavage assessed as formation of nicked DNA at 28 mg/L in phosphate buffered saline at pH 7.4 after 24 hrs by agarose gel electrophoresis relative to control
[7] = test system: Nucleic Acid; experiment: Induction of supercoiled Escherichia coli pUC19 cleavage assessed as formation of nicked DNA at 14 mg/L in phosphate buffered saline at pH 7.4 after 24 hrs by agarose gel electrophoresis relative to control
[8] = test system: Nucleic Acid; experiment: Induction of supercoiled Escherichia coli pUC19 cleavage assessed as formation of nicked DNA at 56 mg/L in phosphate buffered saline at pH 7.4 after 24 hrs by agarose gel electrophoresis relative to control
[9] = test system: Calf thymus DNA; experiment: Binding affinity to calf thymus DNA assessed as change in melting temperature at 18 mg/L by spectrophotometry; settings: Bos taurus
[10] = test system: Nucleic Acid; experiment: Induction of supercoiled Escherichia coli pUC19 cleavage assessed as formation of nicked DNA at 56 mg/L in phosphate buffered saline at pH 7.4 after 8 hrs by agarose gel electrophoresis relative to control
[11] = test system: Nucleic Acid; experiment: Induction of supercoiled Escherichia coli pUC19 cleavage assessed as formation of nicked DNA at 56 mg/L in phosphate buffered saline at pH 7.4 upto 24 hrs by agarose gel electrophoresis relative to control

Activity [1] | Activity [2] | Activity [3] | Activity [4] | Activity [5] [%] | Activity [6] [%] | Activity [7] [%] | Activity [8] [%] | ΔTm [9] [°C] | Activity [10] | Activity [11] [%] | Structure (SMILES)
Active | inactive | inactive | inactive | 31 | 92 | 66 | 100 | 4 | Active | – | O=C(CS)N1CCNCCN(C(=O)CSSCC(=O)N2CCNCCN(C(=O)CSSCC(=O)N3CCNCCN(C(=O)CSSCC(=O)N4CCNCCN(C(=O)CSSCC(=O)N5CCNCCN(C(=O)CS)CCNCC5)CCNCC4)CCNCC3)CCNCC2)CCNCC1
– | – | – | – | 20 | 44 | 24 | 63 | 3.4 | 35% | 92 | O=C(CS)N1CCNCCN(C(=O)CS)CCNCC1
